# In PMC7450530 (Biochemistry, 2019):
# Experiments:
# [1] = target: T1, M. tuberculosis GyrA^A90V gyrase (Mycobacterium tuberculosis, UniProt P9WG47, A90V); format: biochemical
# [2] = target: T1, M. tuberculosis GyrA^A90V gyrase; format: biochemical; remark: listed apart in the source
compound,measurement,setting,value
CC[C@H](C)n1cc(C)c2c(C(=O)NCc3c(C)cc(C)[nH]c3=O)cc(-c3ccc(N4CCNCC4)nc3)cc21 [GSK126],single-stranded DNA cleavage enhancement compared to wild-type,[1],induced substantially more single-stranded DNA cleavage
same,potency in supercoiling inhibition compared to the wild-type enzyme,[2],potency dropped considerably
